Earlier results as cited in article PMC6748410, “A phase 2 study of an oral mTORC1/mTORC2 kinase inhibitor (CC-223) for non-pancreatic neuroendocrine tumors with or without carcinoid symptoms” (PLoS ONE, 2019).

Test system: NET arising from the pancreas, lung, or GI tract
Parameters: method as in PMID 26703889, PMID 21306238
Conditions: cited from earlier work

SMILES: CO[C@H]1C[C@@H]2CC[C@@H](C)[C@@](O)(O2)C(=O)C(=O)N2CCCC[C@H]2C(=O)O[C@H]([C@H](C)C[C@@H]2CC[C@@H](OCCO)[C@H](OC)C2)CC(=O)[C@H](C)/C=C(\C)[C@@H](O)[C@@H](OC)C(=O)[C@H](C)C[C@H](C)/C=C/C=C/C=C/1C [everolimus]
- Median progression-free survival (PFS): 11.0 months
